Reference: ChEMBL document CHEMBL1201862, “PubChem BioAssay data set” (2004)
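Growth conditions: 96-well plates. Treatment: test compound, 48 hours, 5 concentrations. Analysis: linear interpolation between bracketing concentrations; unreached endpoints set to highest concentration. The concentration for 50% growth inhibition is given as GI50.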 The source made the active and inactive calls. No stated cut-off is given here; in the data, active = GI50 up to about 1.1 µM and inactive = higher.

Key:
Assay in all cases: DTP human tumour cell line panel, 48 h
MOLT-4 = test system: MOLT-4
786-0 = test system: 786-0
LOX IMVI = test system: LOX IMVI
SK-MEL-5 = test system: SK-MEL-5
ACHN = test system: ACHN
SN12C = test system: SN12C
SK-MEL-28 = test system: SK-MEL-28
OVCAR-8 = test system: OVCAR-8
EKVX = test system: EKVX
UACC-62 = test system: UACC-62
NCI-H226 = test system: NCI-H226
SW-620 = test system: SW-620
SF-295 = test system: SF-295
Hs-578T = test system: Hs-578T
RXF 393 = test system: RXF 393
CAKI-1 = test system: CAKI-1
SR = test system: SR
HOP-92 = test system: HOP-92
HL-60 = test system: HL-60
COLO 205 = test system: COLO 205

Measured: GI50

COc1cc(NCCC2CCCCN2)c2ncccc2c1 (stereo not given)
inactive: MOLT-4 7.11 µM | 786-0 > 82 µM | LOX IMVI 52.2 µM | SK-MEL-5 25.1 µM | ACHN > 100 µM | SN12C > 49.4 µM | SK-MEL-28 29.2 µM | OVCAR-8 > 100 µM | EKVX > 100 µM | UACC-62 24.8 µM | NCI-H226 > 63.8 µM | SW-620 > 70.6 µM | SF-295 67.1 µM | Hs-578T > 96.4 µM | RXF 393 22.2 µM | CAKI-1 > 77.1 µM | SR 27.3 µM | HOP-92 60.8 µM | HL-60 3.56 µM | COLO 205 13.5 µM

CN(C)C(Cc1c[nH]cn1)C(=O)N1CCCC1C(N)=O (stereo not given)
inactive: MOLT-4 > 100 µM | 786-0 > 100 µM | LOX IMVI > 100 µM | SK-MEL-5 > 100 µM | ACHN > 100 µM | SN12C > 100 µM | SK-MEL-28 > 100 µM | OVCAR-8 > 100 µM | EKVX > 100 µM | UACC-62 > 100 µM | NCI-H226 > 100 µM | SW-620 > 100 µM | SF-295 > 100 µM | Hs-578T > 100 µM | RXF 393 > 100 µM | CAKI-1 > 100 µM | SR > 100 µM | HOP-92 > 100 µM | HL-60 > 100 µM | COLO 205 > 100 µM

CC1OC(c2ccc3c(c2O)C(=O)C2=C(C3=O)C3(O)C(=O)CC(C)(O)CC3(O)C=C2)CC(O)C1O (stereo not given)
inactive: MOLT-4 3.81 µM | 786-0 16.8 µM | LOX IMVI 14 µM | SK-MEL-5 11 µM | ACHN 13.6 µM | SN12C 15 µM | SK-MEL-28 15.7 µM | OVCAR-8 14.1 µM | EKVX 16 µM | UACC-62 14.9 µM | NCI-H226 19.8 µM | SW-620 7.98 µM | SF-295 16.6 µM | Hs-578T 20.1 µM | RXF 393 11.4 µM | CAKI-1 7.28 µM | SR 10.2 µM | HOP-92 14.7 µM | HL-60 1.98 µM | COLO 205 1.75 µM

CC1CN(CCO)CCN1c1ccccc1 (stereo not given)
inactive: MOLT-4 1.41 µM | 786-0 > 100 µM | LOX IMVI > 100 µM | SK-MEL-5 > 100 µM | ACHN > 100 µM | SN12C > 100 µM | SK-MEL-28 > 100 µM | OVCAR-8 > 100 µM | EKVX > 100 µM | UACC-62 > 100 µM | NCI-H226 > 100 µM | SW-620 > 100 µM | SF-295 > 100 µM | Hs-578T > 100 µM | RXF 393 > 100 µM | CAKI-1 > 100 µM | SR > 100 µM | HOP-92 > 100 µM | HL-60 42 µM | COLO 205 > 100 µM

C=Cc1c(C)c(O)cc2c1-c1ccc(O)c(C)c1CC2
inactive: MOLT-4 11.6 µM | 786-0 15.8 µM | LOX IMVI 16.1 µM | SK-MEL-5 16 µM | ACHN 29.4 µM | SN12C 17.5 µM | SK-MEL-28 16.2 µM | OVCAR-8 17.5 µM | EKVX 1.97 µM | UACC-62 7.5 µM | NCI-H226 17.3 µM | SW-620 23.4 µM | SF-295 14.9 µM | Hs-578T 3.11 µM | RXF 393 10.9 µM | CAKI-1 13.9 µM | SR 3.71 µM | HOP-92 23.2 µM | HL-60 15 µM | COLO 205 19.3 µM

C=C1CCC(O)C/C1=C/C=C1\CCCC2(C)C1CCC2C(C)CCCC(C)C (stereo not given)
inactive: MOLT-4 20.2 µM | 786-0 16.7 µM | LOX IMVI 17.9 µM | SK-MEL-5 19.4 µM | ACHN 16 µM | SN12C 16.6 µM | SK-MEL-28 16.6 µM | OVCAR-8 18.1 µM | EKVX 19 µM | UACC-62 18.8 µM | NCI-H226 16 µM | SW-620 16.7 µM | SF-295 19.6 µM | Hs-578T 17.6 µM | RXF 393 18.5 µM | CAKI-1 19.8 µM | SR 18.5 µM | HOP-92 17.7 µM | HL-60 23.2 µM | COLO 205 19 µM

COc1ccc(-c2nc(N)c(C#N)c3c2CCSc2ccc(C)cc2-3)cc1OC
inactive: MOLT-4 3.49 µM | 786-0 15 µM | LOX IMVI 14.8 µM | SK-MEL-5 6.18 µM | ACHN 19.9 µM | SN12C 17.3 µM | SK-MEL-28 39.7 µM | OVCAR-8 22.4 µM | EKVX 17.9 µM | UACC-62 10.9 µM | NCI-H226 14.8 µM | SW-620 22.1 µM | SF-295 6.67 µM | Hs-578T 8.2 µM | RXF 393 13.7 µM | CAKI-1 19.6 µM | SR 2.6 µM | HOP-92 10.1 µM | HL-60 2.89 µM | COLO 205 5.51 µM

Cc1cc(C)c(-n2c(-c3ccc(Br)cc3)cs/c2=N\N=C2C=C(C(C)(C)C)C(=O)C(C(C)(C)C)=C2)c(C)c1
inactive: MOLT-4 > 100 µM | 786-0 > 100 µM | LOX IMVI > 100 µM | SK-MEL-5 > 100 µM | ACHN > 100 µM | SN12C > 100 µM | SK-MEL-28 > 100 µM | OVCAR-8 > 100 µM | EKVX > 100 µM | UACC-62 > 81.1 µM | NCI-H226 > 100 µM | SW-620 > 100 µM | SF-295 > 41.5 µM | Hs-578T 15.3 µM | RXF 393 21.7 µM | CAKI-1 > 100 µM | SR > 100 µM | HOP-92 > 50.1 µM | HL-60 > 100 µM | COLO 205 > 100 µM

C[N+](C)(C)CC1CCCCCCCCCCC1=O (stereo not given)
inactive: MOLT-4 > 100 µM | 786-0 > 100 µM | LOX IMVI > 100 µM | SK-MEL-5 > 100 µM | ACHN > 100 µM | SN12C > 100 µM | SK-MEL-28 > 100 µM | OVCAR-8 > 100 µM | EKVX > 100 µM | UACC-62 > 100 µM | NCI-H226 > 100 µM | SW-620 > 100 µM | SF-295 > 100 µM | Hs-578T > 100 µM | RXF 393 > 100 µM | CAKI-1 > 100 µM | SR > 100 µM | HOP-92 > 100 µM | HL-60 > 100 µM | COLO 205 > 100 µM

O=C1C[S+]([O-])C23c4cc5ccccc5n4CCC2CCCN13 (stereo not given)
inactive: MOLT-4 > 100 µM | 786-0 > 100 µM | LOX IMVI > 100 µM | SK-MEL-5 > 100 µM | ACHN > 100 µM | SN12C > 100 µM | SK-MEL-28 > 100 µM | OVCAR-8 > 100 µM | EKVX > 100 µM | UACC-62 > 100 µM | NCI-H226 > 100 µM | SW-620 > 100 µM | SF-295 > 100 µM | Hs-578T > 100 µM | RXF 393 > 100 µM | CAKI-1 > 100 µM | SR > 100 µM | HOP-92 > 100 µM | HL-60 > 100 µM | COLO 205 > 100 µM
